Experimental data: US9535057B2, “Method of in vivo screening for cardiac toxic agents using teleost” (CITY UNIVERSITY OF HONG KONG, priority 2007, dated 2017)

Tested on: zebrafish embryos
Assay: Cardiotoxicity screen in zebrafish embryos: heart rate and heart beat rhythm from video of blood circulation with power spectral analysis, and by direct examination of heart
Format: in vivo
Conditions: 48-hpf zebrafish embryos, 2 μM haloperidol in egg medium, 4 hour incubation; direct examination of heart and power spectral analysis (FIG. 7); p<0.05 vs control
Description: Before videoing blood cell circulation, the teleost is immobilized on a surface, for example, glass slide or plastic petri dish. Immobilization medium can be agarose, agar or methyl-cellulose. The optimal concentration of agarose or agar used is 0.5% (w/v) or lower. The concentration of methyl-cellulose used is 2-4% (w/v). Teleosts should be oriented in their spontaneous lateral position.
A video imaging system consists of a microscope, either stereomicroscope or conventional light microscope, with low magnification objective (FIG. 1). […] Video recorded in medium, e.g. VCR tape or mini DV tape, or recorded in personal computer is converted back to readable format, such as AVI or WMV format, and stored in personal computer for further video image analysis. […]
Data analysis of the series of the amount of differential pixels obtained from video image analysis is performed by methods implemented in the home-made software. Data series of amount of differential pixels is analyzed by comprising power spectral analysis in which data series of differential pixels is decomposed by discrete Fourier transform. […] A total power value of the spectrum is calculated. […]
The embodiment is tested in wild type embryos at 52 hpf. […] Heart rate is determined from direct visual counting of the number of heart beats in 1 min. […] In addition, the cardiac rhythm is determined as the standard deviation of heart beat time interval. […]

## O=C(CCCN1CCC(O)(c2ccc(Cl)cc2)CC1)c1ccc(F)cc1 [haloperidol]
  heart rate: significantly decreased
